Experimental data taken from patent US20250186404A1, “METHODS OF USING A (THIAZOLYL)BENZENESULFONAMIDE DERIVATIVE” (Cyteir Therapeutics, Inc., priority 2023, published 2025).

Legend:
T47D = test: Compound 67A sensitivity / cell growth inhibition of CRISPR screen cell line T47D; type: cell-based
Excerpt: (§1) Three cell lines with varying sensitivities to Compound 67A were utilized in the CRISPR screen (Table 3, FIG. 11).
Screen hits (FDR<0.2) were identified using the drugZ algorithm (FIG. 13). MCT4 was the most significant hit consistent between the SU8686 and T47D cell lines, sensitizing both lines to Compound 67A treatment.

SU8686 = test: Compound 67A sensitivity of CRISPR screen cell line SU8686; type: cell-based; settings: Homo sapiens, SU.86.86; SU8686, Pancreatic Cancer
Excerpt: as §1

MCT1/BSG complex = molecular target: T1, MCT1/BSG complex (Homo sapiens, UniProt P53985); test: Microscale thermophoresis (MST) direct binding; settings: purified hexahistidine-tagged MCT1/BSG complex, read-out: Kd, binding to MCT1/basigin
T1 sequence (P53985 1-500): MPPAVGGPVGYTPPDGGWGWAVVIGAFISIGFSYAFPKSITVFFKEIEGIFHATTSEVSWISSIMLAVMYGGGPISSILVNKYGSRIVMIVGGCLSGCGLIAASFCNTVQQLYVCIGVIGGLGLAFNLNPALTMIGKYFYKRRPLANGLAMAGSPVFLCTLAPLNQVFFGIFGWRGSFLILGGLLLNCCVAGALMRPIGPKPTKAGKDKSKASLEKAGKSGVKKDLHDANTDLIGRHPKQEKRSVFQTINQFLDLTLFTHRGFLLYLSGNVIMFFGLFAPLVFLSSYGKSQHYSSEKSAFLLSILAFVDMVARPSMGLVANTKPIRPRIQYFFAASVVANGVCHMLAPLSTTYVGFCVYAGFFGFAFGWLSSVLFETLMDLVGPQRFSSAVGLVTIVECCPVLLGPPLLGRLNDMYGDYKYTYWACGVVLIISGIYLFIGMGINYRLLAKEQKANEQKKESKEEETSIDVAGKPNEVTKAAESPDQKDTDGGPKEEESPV
T1 sequence (P35613 140-385 partner limits assumed): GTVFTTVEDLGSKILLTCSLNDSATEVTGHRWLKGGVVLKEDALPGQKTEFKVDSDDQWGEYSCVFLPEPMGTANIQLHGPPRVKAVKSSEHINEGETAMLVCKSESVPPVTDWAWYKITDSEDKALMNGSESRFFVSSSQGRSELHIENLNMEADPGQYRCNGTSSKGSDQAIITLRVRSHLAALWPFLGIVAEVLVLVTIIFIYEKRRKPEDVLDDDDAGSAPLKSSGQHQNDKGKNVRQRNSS
Excerpt: Microscale thermophoresis (MST) monitors the solution phase change in protein fluorescence and mobility in response to a temperature gradient created with an infrared laser. The method is compatible with detergent solubilized proteins and enables measurement of direct ligand binding.
Purified hexahistidine-tagged MCT1/BSG complex was mixed with a hexahistidine interacting fluorescent dye and MST was monitored as a function of compound concentration.

[1] = tested on: Daudi human lymphoma cells; test: Reversal of 3-bromopyruvate-induced cytotoxicity; type: cell-based; settings: 3-bromopyruvate (MCT1 substrate)
Method: Compound 67A data across 439 cell lines was cross-compared with available DepMap gene essentiality data and gene expression data. A genome-wide CRISPR screen identified genes that influenced sensitivity to Compound 67A. MDCKII cells expressing human MCT1 were treated with Compound 67A and transport of the MCT1 substrate, 2-thiophene-glyoxylic acid, was quantified by LC-MS. Compound 67A-mediated reversal of cytotoxicity induced by 3-bromopyruvate, an MCT1 substrate, was measured in Daudi human lymphoma cells. Lactate was measured using Lactate-Glo. Extracellular acidification and O2 consumption were measured by Seahorse.

Raji lymphoma cells = test: Seahorse XF ECAR and OCR measurement; type: cell-based; settings: Seahorse XF Analyzer
Method: The utilization of glycolysis and oxidative phosphorylation (OXPHOS) were measured by the extracellular acidification rate (ECAR) and oxygen consumption rate (OCR), respectively, in Raji lymphoma cells via the Seahorse XF Analyzer.

CC(C)OC(=O)Nc1ccc(-c2cnc([C@H]3CC[C@H](NC(=O)OC(C)C)CC3)s2)c(S(=O)(=O)NC(C)(C)C)c1 [Compound 67A]
IC50 (T47D; Homo sapiens, T47D, Breast Cancer): 5.86 µM | effect of MCT4 knockout on cell growth inhibition (T47D; T47D cells, MCT4 knockout): enhanced Compound 67A-mediated cell growth inhibition | IC50 (SU8686): > 20 µM | Kd (MCT1/BSG complex): 0.089 µM | protection from cytotoxic effects of 3-bromopyruvate [1]: protected cells from the cytotoxic effects of 3-bromopyruvate | extracellular acidification rate (ECAR) (Raji lymphoma cells): dose-dependent decrease in ECAR | oxygen consumption rate (OCR) (Raji lymphoma cells): concomitant increase in OCR
